The values that follow come from PubChem BioAssay (NCI).

SMILES strings stand for the structures.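 Growth conditions: 96-well plates. Treatment: test compound, 48 hours, 5 concentrations. Analysis: linear interpolation between bracketing concentrations; unreached endpoints set to highest concentration. GI50 = concentration required for 50% inhibition of growth. The concentration for full growth arrest is given as TGI.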

Among the test systems are UACC-257 melanoma; COLO 205 colon; RPMI-8226 leukemia; SN12C renal; 786-0 renal; SNB-75 CNS; RXF 393 renal; ACHN renal; NCI-H23 lung; NCI-H522 lung.
Test in all cases: NCI anticancer screen, dose series, 48 h

Consider `CC(C)c1ccc(/C=C(\NC(=O)c2ccccc2)c2nc3ccccc3[nH]2)cc1`, for which the TGI in the experiment with UACC-257 melanoma is more than 100 µM; in the experiment on COLO 205 colon it was more than 100 µM; with RPMI-8226 leukemia, 45.2 µM; with SN12C renal, more than 100 µM; in the experiment on 786-0 renal it was more than 100 µM; with SNB-75 CNS it was more than 100 µM. Further, the TGI is more than 100 µM with RXF 393 renal, more than 100 µM in the experiment on ACHN renal, 75.3 µM in the experiment on NCI-H23 lung and 89.5 µM in the experiment with NCI-H522 lung.
For the compound `COC(=O)/C(C#N)=C1\N=NNN1CCCN1CCOCC1`, the TGI in the experiment with UACC-257 melanoma, in the experiment on COLO 205 colon, in the experiment on RPMI-8226 leukemia, in the experiment on SN12C renal, with 786-0 renal and with SNB-75 CNS was more than 100 µM each time. Moreover, the TGI with RXF 393 renal, with ACHN renal, in the experiment on NCI-H23 lung and in the experiment on NCI-H522 lung was more than 100 µM each time.
Consider `CCCC/C(=N\N=C(N)N)c1ccc(F)cc1`, for which the GI50 was 4.4 µM in the experiment on UACC-257 melanoma; 1.78 µM in the experiment with COLO 205 colon; 2.67 µM in the experiment with RPMI-8226 leukemia; 4.37 µM in the experiment on SN12C renal; 3.93 µM in the experiment with 786-0 renal; 2.36 µM in the experiment on SNB-75 CNS. In addition, the GI50 is 2.04 µM in the experiment with RXF 393 renal, 5.33 µM in the experiment on ACHN renal, 3.34 µM in the experiment with NCI-H23 lung and 3.79 µM in the experiment on NCI-H522 lung. Moreover, the TGI with UACC-257 melanoma was 13.9 µM; with COLO 205 colon, 3.41 µM; in the experiment on RPMI-8226 leukemia it was 17.4 µM; in the experiment on SN12C renal it was 17.3 µM; in the experiment on 786-0 renal, 16.2 µM; in the experiment with SNB-75 CNS it was 12.5 µM. For the same compound, the TGI is 5.81 µM with RXF 393 renal, 17.5 µM in the experiment on ACHN renal, 17.1 µM in the experiment on NCI-H23 lung and 16.5 µM in the experiment with NCI-H522 lung.
With `O=C(OCc1ccccc1CN1CCOCC1)c1ccc(Br)cc1`, the TGI with UACC-257 melanoma was more than 100 µM; in the experiment with COLO 205 colon it was more than 100 µM; in the experiment on RPMI-8226 leukemia it was 49.7 µM; in the experiment on SN12C renal it was more than 100 µM; with 786-0 renal, more than 100 µM; in the experiment with SNB-75 CNS, more than 100 µM. Besides, the TGI with RXF 393 renal, in the experiment on ACHN renal, in the experiment on NCI-H23 lung and with NCI-H522 lung was more than 100 µM in each case.
With `O=C(CCCCCCCCC(=O)OCC1OC(n2cnc3c(=O)[nH]cnc32)C(O)C1O)OCC1OC(n2cnc3c(=O)[nH]cnc32)C(O)C1O` (centres undefined), the TGI in the experiment with UACC-257 melanoma, in the experiment on COLO 205 colon, with RPMI-8226 leukemia, in the experiment on SN12C renal, with 786-0 renal and in the experiment with SNB-75 CNS was more than 100 µM throughout. Moreover, the TGI with RXF 393 renal, with ACHN renal, with NCI-H23 lung and in the experiment with NCI-H522 lung was more than 100 µM each time.
Regarding `COc1cc2c3c(c1OC)-c1ccccc1C(C(OC(C)=O)c1ccccc1)C3N(C)CC2` (centres undefined), the TGI was more than 100 µM in the experiment on UACC-257 melanoma; more than 100 µM in the experiment on COLO 205 colon; 80.7 µM in the experiment with RPMI-8226 leukemia; more than 100 µM with SN12C renal; more than 100 µM in the experiment with 786-0 renal; more than 100 µM with SNB-75 CNS. Besides, the TGI in the experiment on RXF 393 renal, in the experiment on ACHN renal, with NCI-H23 lung and with NCI-H522 lung was more than 100 µM in each case.
With `O=C1[C@H]2C(c3ccccc3)=NN(C(=O)c3ccccc3)[C@H]2C(=O)N1c1ccccc1`, the TGI in the experiment on UACC-257 melanoma, in the experiment on COLO 205 colon, in the experiment with RPMI-8226 leukemia, in the experiment on SN12C renal, in the experiment with 786-0 renal and in the experiment with SNB-75 CNS was more than 100 µM each time. Also, the TGI in the experiment on RXF 393 renal, in the experiment on ACHN renal, in the experiment with NCI-H23 lung and with NCI-H522 lung was more than 100 µM in each case.
`O=C(O)c1cc(Cl)cc(NC(=O)C(Cl)Cl)c1Cl`: the TGI in the experiment with UACC-257 melanoma, in the experiment on COLO 205 colon, in the experiment on RPMI-8226 leukemia, in the experiment with SN12C renal, with 786-0 renal and in the experiment with SNB-75 CNS was more than 100 µM in each case. Further, the TGI in the experiment with RXF 393 renal, in the experiment on ACHN renal, with NCI-H23 lung and in the experiment on NCI-H522 lung was more than 100 µM in each case.
For the compound `CC1(C)N=C(N)N=C(N)N1c1ccc(OCC(=O)Nc2cccc(S(=O)(=O)F)c2)c(Cl)c1`, the TGI in the experiment on UACC-257 melanoma was more than 14.2 µM; with COLO 205 colon, more than 100 µM; in the experiment on RPMI-8226 leukemia, more than 100 µM; in the experiment with SN12C renal, more than 100 µM; with 786-0 renal, more than 42.5 µM; with SNB-75 CNS, more than 100 µM. The TGI in the experiment with RXF 393 renal is more than 100 µM; in the experiment on ACHN renal it was more than 100 µM; with NCI-H23 lung, more than 45.4 µM; in the experiment with NCI-H522 lung, more than 100 µM.
Take `CC1CCC(O)C(C(O)CC2CC(=O)N(C)C(=O)C2)C1` (centres undefined): the TGI in the experiment with UACC-257 melanoma, with COLO 205 colon, in the experiment on RPMI-8226 leukemia, with SN12C renal, with 786-0 renal and in the experiment with SNB-75 CNS was more than 100 µM throughout. Moreover, the TGI with RXF 393 renal, in the experiment with ACHN renal, in the experiment with NCI-H23 lung and with NCI-H522 lung was more than 100 µM each time.
For `N#CC1c2ccccc2-c2ccccc2N1C(=O)c1ccccc1` (centres undefined), the GI50 in the experiment on UACC-257 melanoma was 5.32 µM; in the experiment on COLO 205 colon it was 1.56 µM; in the experiment on RPMI-8226 leukemia, 0.903 µM; in the experiment on SN12C renal, 3.86 µM; with 786-0 renal, 3.53 µM; with SNB-75 CNS, 2.43 µM. Besides, the GI50 in the experiment with RXF 393 renal is 0.913 µM; in the experiment on ACHN renal it was 4.05 µM; in the experiment with NCI-H23 lung it was 3.09 µM; in the experiment with NCI-H522 lung, 0.223 µM. Further, the TGI in the experiment on UACC-257 melanoma was more than 54.5 µM; in the experiment with COLO 205 colon, 3.67 µM; in the experiment on RPMI-8226 leukemia, 5.32 µM; with SN12C renal, more than 92.2 µM; with 786-0 renal, more than 88.1 µM; in the experiment with SNB-75 CNS, more than 49.4 µM. In addition, the TGI is 13.2 µM in the experiment with RXF 393 renal, more than 100 µM in the experiment with ACHN renal, more than 100 µM in the experiment on NCI-H23 lung and 1.48 µM with NCI-H522 lung.
`O=C(N[C@@H]1CCCc2ccccc21)[C@H](CCC(=O)N1CCN(C2CCCCC2)CC1)N1C(=O)[C@@H](N2C(=O)OC[C@@H]2c2ccccc2)[C@H]1/C=C/c1ccccc1`: the GI50 with UACC-257 melanoma is 1.49 µM; with COLO 205 colon it was 1.59 µM; with RPMI-8226 leukemia, 1.54 µM; in the experiment on SN12C renal, 3.72 µM; with 786-0 renal it was 1.86 µM; in the experiment with SNB-75 CNS, 1.32 µM. The GI50 in the experiment on RXF 393 renal is 1.71 µM; in the experiment with ACHN renal, 2.78 µM; in the experiment with NCI-H23 lung, 3.7 µM; in the experiment with NCI-H522 lung, 1.76 µM. The TGI was 3.36 µM in the experiment on UACC-257 melanoma; 3.52 µM in the experiment on COLO 205 colon; 5.34 µM in the experiment with RPMI-8226 leukemia; 27.3 µM in the experiment on SN12C renal; 4.07 µM in the experiment with 786-0 renal; 4.19 µM in the experiment with SNB-75 CNS. Further, the TGI in the experiment with RXF 393 renal worked out at 3.34 µM; in the experiment on ACHN renal, 22.1 µM; with NCI-H23 lung, 19.7 µM; in the experiment on NCI-H522 lung, 4.11 µM.
As to `c1ccc2c(c1)nc(NCCN1CCNCC1)c1c3ccccc3[nH]c21`, the GI50 with UACC-257 melanoma is 1.71 µM; with COLO 205 colon it was 0.346 µM; in the experiment with SN12C renal, 0.19 µM; in the experiment on 786-0 renal, 0.342 µM; in the experiment with SNB-75 CNS, 1.44 µM; in the experiment with RXF 393 renal it was 0.438 µM. Further, the GI50 with ACHN renal is 0.369 µM; with NCI-H23 lung, 0.666 µM; with NCI-H522 lung, 0.22 µM. Besides, the TGI in the experiment on UACC-257 melanoma was 3.27 µM; in the experiment with COLO 205 colon, 1.87 µM; with RPMI-8226 leukemia, 0.399 µM; in the experiment on SN12C renal, 1.18 µM; with 786-0 renal it was 1.6 µM; in the experiment on SNB-75 CNS, 2.86 µM. Further, the TGI with RXF 393 renal was 2.04 µM; with ACHN renal, 2.38 µM; in the experiment on NCI-H23 lung, 2.03 µM; with NCI-H522 lung it was 1.07 µM.
`Cc1ccc(NCSc2ccc(Cl)cc2)cc1`: the GI50 in the experiment on UACC-257 melanoma was more than 100 µM; in the experiment on COLO 205 colon, 5.94 µM; in the experiment with RPMI-8226 leukemia, 2.29 µM; in the experiment with SN12C renal, 7.01 µM; in the experiment with 786-0 renal it was 6.53 µM; in the experiment with SNB-75 CNS, 9.92 µM. Also, the GI50 is 30.4 µM in the experiment with RXF 393 renal, more than 100 µM with ACHN renal, 63.4 µM in the experiment on NCI-H23 lung and 21.9 µM in the experiment with NCI-H522 lung. In addition, the TGI is more than 100 µM with UACC-257 melanoma; more than 100 µM in the experiment on COLO 205 colon; more than 100 µM in the experiment with RPMI-8226 leukemia; more than 100 µM in the experiment with SN12C renal; more than 100 µM in the experiment with 786-0 renal; 45.5 µM with SNB-75 CNS. In addition, the TGI in the experiment with RXF 393 renal, in the experiment with ACHN renal, in the experiment on NCI-H23 lung and in the experiment on NCI-H522 lung was more than 100 µM each time.
Consider `O=C1OC(c2ccc(O)cc2)(c2ccc(O)cc2)c2cccc3cccc1c23`, for which the GI50 in the experiment with UACC-257 melanoma is 13.8 µM; in the experiment on COLO 205 colon, 0.737 µM; in the experiment on RPMI-8226 leukemia it was 18.6 µM; in the experiment with SN12C renal it was 12.7 µM; in the experiment on 786-0 renal it was 20.2 µM; with SNB-75 CNS it was 9.97 µM. Moreover, the GI50 in the experiment on RXF 393 renal was 14.6 µM; in the experiment with ACHN renal it was 14.3 µM; in the experiment on NCI-H23 lung it was 17.8 µM; with NCI-H522 lung, 14 µM. Also, the TGI is 27.8 µM with UACC-257 melanoma; 18.4 µM in the experiment on COLO 205 colon; 50.5 µM in the experiment on RPMI-8226 leukemia; 38.4 µM in the experiment with SN12C renal; 41.8 µM with 786-0 renal; 27.1 µM with SNB-75 CNS. Moreover, the TGI was 29.9 µM with RXF 393 renal, 27.9 µM in the experiment with ACHN renal, 37.2 µM with NCI-H23 lung and 33.5 µM in the experiment on NCI-H522 lung.
